25 compounds from patent US8895733B2 (Novartis AG, priority 2010, dated 2014) can be followed below.

The target in the first experiment is T1, Nav 1.7 (Homo sapiens, UniProt Q15858).
T1 construct: expressed in transfected cells
T1 sequence (Q15858 whole entry): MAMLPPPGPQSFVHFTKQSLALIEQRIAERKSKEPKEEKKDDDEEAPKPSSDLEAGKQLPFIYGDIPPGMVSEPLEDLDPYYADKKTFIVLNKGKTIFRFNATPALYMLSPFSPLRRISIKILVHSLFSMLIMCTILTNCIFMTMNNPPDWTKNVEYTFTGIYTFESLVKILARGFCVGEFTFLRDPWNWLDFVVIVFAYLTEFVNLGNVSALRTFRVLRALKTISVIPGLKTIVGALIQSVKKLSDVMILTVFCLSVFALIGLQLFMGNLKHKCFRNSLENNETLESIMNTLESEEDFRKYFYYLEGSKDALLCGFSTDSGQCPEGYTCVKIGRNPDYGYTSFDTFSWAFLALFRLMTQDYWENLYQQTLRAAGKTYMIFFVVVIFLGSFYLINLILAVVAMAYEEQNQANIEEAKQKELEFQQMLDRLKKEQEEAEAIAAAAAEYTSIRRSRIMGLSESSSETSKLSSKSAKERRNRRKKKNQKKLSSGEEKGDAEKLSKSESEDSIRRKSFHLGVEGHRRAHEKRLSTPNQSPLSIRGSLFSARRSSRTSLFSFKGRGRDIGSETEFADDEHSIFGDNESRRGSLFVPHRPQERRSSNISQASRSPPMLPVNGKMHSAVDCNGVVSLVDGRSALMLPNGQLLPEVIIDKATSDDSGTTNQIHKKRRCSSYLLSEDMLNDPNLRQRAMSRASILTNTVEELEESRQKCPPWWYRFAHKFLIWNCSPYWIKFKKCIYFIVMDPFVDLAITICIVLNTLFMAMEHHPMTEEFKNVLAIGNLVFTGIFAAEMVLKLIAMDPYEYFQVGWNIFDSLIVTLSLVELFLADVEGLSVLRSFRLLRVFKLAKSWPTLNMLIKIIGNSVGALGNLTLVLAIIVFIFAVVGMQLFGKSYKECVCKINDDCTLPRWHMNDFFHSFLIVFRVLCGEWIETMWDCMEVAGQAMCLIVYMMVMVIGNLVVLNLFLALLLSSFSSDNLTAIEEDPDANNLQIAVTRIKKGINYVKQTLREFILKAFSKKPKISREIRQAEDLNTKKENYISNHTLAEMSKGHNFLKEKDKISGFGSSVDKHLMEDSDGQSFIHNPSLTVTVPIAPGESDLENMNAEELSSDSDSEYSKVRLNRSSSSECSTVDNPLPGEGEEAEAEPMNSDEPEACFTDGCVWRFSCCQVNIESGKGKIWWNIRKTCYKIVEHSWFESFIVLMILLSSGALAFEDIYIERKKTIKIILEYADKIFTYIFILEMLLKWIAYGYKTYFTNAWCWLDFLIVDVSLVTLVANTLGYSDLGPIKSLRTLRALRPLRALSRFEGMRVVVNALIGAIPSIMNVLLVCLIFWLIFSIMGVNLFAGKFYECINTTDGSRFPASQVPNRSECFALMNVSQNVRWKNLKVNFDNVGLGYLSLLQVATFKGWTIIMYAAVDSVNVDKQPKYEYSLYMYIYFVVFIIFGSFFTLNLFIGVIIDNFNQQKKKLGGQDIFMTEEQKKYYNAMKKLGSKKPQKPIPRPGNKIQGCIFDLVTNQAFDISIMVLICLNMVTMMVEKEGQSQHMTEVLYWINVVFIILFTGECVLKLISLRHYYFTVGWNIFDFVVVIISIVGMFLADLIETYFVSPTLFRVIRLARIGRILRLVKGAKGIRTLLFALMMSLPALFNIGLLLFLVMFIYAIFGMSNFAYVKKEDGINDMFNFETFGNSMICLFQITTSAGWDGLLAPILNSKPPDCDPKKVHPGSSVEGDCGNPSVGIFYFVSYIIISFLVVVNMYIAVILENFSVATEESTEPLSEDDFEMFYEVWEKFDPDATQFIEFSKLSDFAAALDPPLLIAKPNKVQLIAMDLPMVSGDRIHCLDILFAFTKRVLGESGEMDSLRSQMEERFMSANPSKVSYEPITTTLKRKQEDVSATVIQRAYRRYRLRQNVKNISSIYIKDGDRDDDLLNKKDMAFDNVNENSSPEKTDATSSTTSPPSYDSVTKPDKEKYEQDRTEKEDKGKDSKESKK
As to the kind of experiment: Whole-cell voltage clamp electrophysiology, manual patch clamp (marker b in Table of Examples). In kind it is cell-based. Particulars: marker b = Manual patch clamp data; read-out: Nav 1.7 activity. An excerpt: a.IonWork Quattro data, b=Manual patch clamp data, c=Automated patch clamp data M=Method
Whole-Cell Voltage Clamp Electrophysiology Assay
(§1) Patch-clamp electrophysiology is considered the gold standard technique for investigation of ion channel function and pharmacology. Using this method, sodium channel currents can be measured in cells, which stably (or transiently) express the sodium channel subtype of interest. Application of compounds during such experiments provides a functional measure of the activity and potency of compounds affecting the ion channel of interest.
(§2) Electrophysiological studies can also be performed using the whole cell configuration of the standard manual patch clamp technique as described in the literature (e.g. Pflugers Arch., 1981, 391(2), 85-100). In this assay, cells that express the voltage-gated sodium channel protein of interest are exposed to the drugs by conventional microperfusion systems, or by a home-built perfusion system. A suitable voltage stimulus protocol is used to activate the voltage-gated sodium channels.
(§3) A suitable voltage stimulus protocol is used to activate voltage-gated sodium channel proteins of interest. A typical stimulus protocol may consist of sweeps of sequential voltage pulses starting from a holding potential (i.e. −65 mV), to a more positive and depolarising test pulse potential (i.e. −10 mV) and finally to a more negative and hyperpolarising potential (i.e. −100 mV). According to the biophysics of the voltage-gated ion channel of interest and interest in channel configuration the voltages and durations of the pulses as well as the overall frequency of sweeps applied might vary. Accordingly, a stimulus protocol was designed to assess compounds due to their potential to block NaV1.7 channels primarily in inactivated state. Selectivity over other voltage-gated sodium channel members was assessed by protocols that reflect the native function of the channels (i.e. heart rate or firing of neurons).
(§4) Electrophysiological studies can also be performed using the whole cell configuration of the standard manual patch clamp technique as described in the literature (e.g. Pflugers Arch., 1981, 391(2), 85-100). In this assay, cells that express the human voltage-gated sodium channel protein of interest are exposed to the drugs by conventional microperfusion systems, or by a home-built perfusion system. A suitable voltage stimulus protocol is used to activate the voltage-gated sodium channels. A suitable voltage stimulus protocol may consist of sequential voltage pulses from a holding potential, each first hyperpolarizing the cell, then depolarizing the channels for a brief period. A particularly suitable holding potential may be a voltage allowing a fraction of channels to remain in an inactivated state, like −60 mV. A suitable hyperpolarizing voltage and duration may be −120 mV for 100 ms, and depolarization voltage and duration may be −20 mV for 25 ms, and a suitable frequency of pulses may be 0.1 Hz, but may also have other parameters. Accordingly, a stimulus protocol was designed to assess compounds due to their potential to block NaV1.7 channels primarily in inactivated state. Selectivity over other voltage-gated sodium channel members was assessed by protocols that reflect the native function of the channels (i.e. heart rate or firing of neurons).
With `CN(c1ccccc1)c1nc(N)nc(-c2noc(C3CCN(Cc4ccccc4)C3)n2)n1` (stereo not drawn) [Example 207, 6-[5-(1-benzylpyrrolidin-3-yl)-1,2,4-oxadiazol-3-yl]-2-N-methyl-2-N-phenyl-1,3,5-triazine-2,4-diamine], the IC50 is 97 nM.
On the same count and under the same terms, the figure for `CN(c1ccccc1)c1nc(N)nc(-c2noc(N3CCC(COCC4CC4)CC3)n2)n1` [Example 216, 6-(5-{4-[(Cyclopropylmethoxy)methyl]piperidin-1-yl}-1,2,4-oxadiazol-3-yl)-2-N-methyl-2-N-phenyl-1,3,5-triazine-2,4-diamine] is 283 nM; for `COC1CCN(c2nc(-c3nc(N)nc(Nc4ccccc4)n3)no2)CC1` [Example 238, 6-[5-(4-methoxypiperidin-1-yl)-1,2,4-oxadiazol-3-yl]-2-N-phenyl-1,3,5-triazine-2,4-diamine] it is 761 nM.
As to `CN(c1ccccc1)c1nc(N)nc(-c2noc(-c3ccn(CC(F)(F)F)n3)n2)n1` [Example 256, 2-N-Methyl-2-N-phenyl-6-{5-[1-(2,2,2-trifluoroethyl)-1H-pyrazol-3-yl]-1,2,4-oxadiazol-3-yl}-1,3,5-triazine-2,4-diamine], the IC50 was 815 nM.
The same measure, in the same setting: the figure for `CN(c1ccccc1)c1nc(N)nc(-c2noc(C(=O)N3CCC(OCC(F)(F)F)CC3)n2)n1` [Example 262, 2-N-methyl-2-N-phenyl-6-(5-{[4-(2,2,2-trifluoroethoxy)piperidin-1-yl]carbonyl}-1,2,4-oxadiazol-3-yl)-1,3,5-triazine-2,4-diamine] is 400 nM.
Still for that read-out and setting: in the case of `Cc1cccc(-c2nc(-c3nc(N)nc(N(C)c4ccccc4)n3)no2)n1` [Example 271, 2-N-methyl-6-[5-(6-methylpyridin-2-yl)-1,2,4-oxadiazol-3-yl]-2-N-phenyl-1,3,5-triazine-2,4-diamine] it was 945 nM; in that of `CN(c1ccccc1)c1nc(N)nc(-c2noc(-c3ncccn3)n2)n1` [Example 278, 2-N-methyl-2-N-phenyl-6-[5-(pyrimidin-2-yl)-1,2,4-oxadiazol-3-yl]-1,3,5-triazine-2,4-diamine], 1060 nM.
On the same count and under the same terms, the figure for `COc1cnc(-c2nc(-c3nc(N)nc(N(C)c4ccccc4)n3)no2)c(OC)c1` [Example 282, 6-[5-(3,5-Dimethoxypyridin-2-yl)-1,2,4-oxadiazol-3-yl]-2-N-methyl-2-N-phenyl-1,3,5-triazine-2,4-diamine] is 308 nM.
In the case of `Nc1nc(Nc2ccccc2)nc(-c2noc(-c3ccc(COCC(F)(F)F)nc3)n2)n1` [Example 303, 2-N-phenyl-6-(5-{6-[(2,2,2-trifluoroethoxy)methyl]pyridin-3-yl}-1,2,4-oxadiazol-3-yl)-1,3,5-triazine-2,4-diamine], the IC50 was found to be 24 nM.
Still for that read-out and setting: the figure for `CN(c1ccccc1)c1nc(N)nc(-c2noc(-c3ccc([S+]([O-])CC(F)(F)F)nc3)n2)n1` (stereo not drawn) [Example 320, 2-N-methyl-2-N-phenyl-6-(5-{6-[(2,2,2-trifluoroethane)sulfinyl]pyridin-3-yl}-1,2,4-oxadiazol-3-yl)-1,3,5-triazine-2,4-diamine] is 276 nM; for `CN(c1ccccc1)c1nc(N)nc(-c2noc(N3CCC(OCC(F)(F)F)CC3)n2)n1` [Example 335, 2-N-methyl-2-N-phenyl-6-{5-[4-(2,2,2-trifluoroethoxy)piperidin-1-yl]-1,2,4-oxadiazol-3-yl}-1,3,5-triazine-2,4-diamine] it is 701 nM.
In the case of `Cc1csc(-c2nc(-c3nc(N)nc(N(C)c4ccccc4)n3)no2)n1` [Example 341, 2-N-methyl-6-[5-(4-methyl-1,3-thiazol-2-yl)-1,2,4-oxadiazol-3-yl]-2-N-phenyl-1,3,5-triazine-2,4-diamine], the IC50 came out at 1490 nM.
Same read-out and setting: in the case of `Nc1nc(Nc2ccccc2)nc(-c2noc(-c3ncccc3F)n2)n1` [Example 346, 6-[5-(3-Fluoropyridin-2-yl)-1,2,4-oxadiazol-3-yl]-2-N-phenyl-1,3,5-triazine-2,4-diamine] it was 337 nM; in that of `CN(c1nc(N)nc(-c2noc(-c3ccc(OCC(F)(F)F)nc3)n2)n1)c1cccc(F)c1F` [Example 411, 2-N-(2,3-difluorophenyl)-2-N-methyl-6-{5-[6-(2,2,2-trifluoroethoxy)pyridin-3-yl]-1,2,4-oxadiazol-3-yl}-1,3,5-triazine-2,4-diamine], 17 nM.
Still for that read-out and setting: in the case of `CN(c1ccccc1)c1nc(N)nc(-c2noc(-c3ccnc(OCC(F)(F)F)c3)n2)n1` [Example 472, 2-N-methyl-2-N-phenyl-6-{5-[2-(2,2,2-trifluoroethoxy)pyridin-4-yl]-1,2,4-oxadiazol-3-yl}-1,3,5-triazine-2,4-diamine] it was 900 nM; in that of `CN(c1ccccc1)c1nc(N)nc(-c2noc(-c3cccnc3OCC(F)(F)F)n2)n1` [Example 477, 2-N-methyl-2-N-phenyl-6-{5-[2-(2,2,2-trifluoroethoxy)pyridin-3-yl]-1,2,4-oxadiazol-3-yl}-1,3,5-triazine-2,4-diamine], 172 nM; in that of `CN(c1ccccc1)c1nc(N)nc(-c2noc(N3CC(Oc4ccccc4)C3)n2)n1` [Example 489, 2-N-methyl-6-[5-(3-phenoxyazetidin-1-yl)-1,2,4-oxadiazol-3-yl]-2-N-phenyl-1,3,5-triazine-2,4-diamine], 127 nM.

The experiment is the same for the next values; noted with them: marker b: Manual patch clamp data; read-out: Nav 1.7 activity.
`CN(c1ccccc1)c1nc(N)nc(-c2noc(-c3ccco3)n2)n1` [Example 1, 6-(5-Furan-2-yl-[1,2,4]oxadiazol-3-yl)-N-methyl-N-phenyl-[1,3,5]triazine-2,4-diamine]: the IC50 was found to be 212 nM.
Same read-out and setting: the figure for `CN(c1cccc(F)c1)c1nc(N)nc(-c2noc(-c3ccc(OCC4CC4)nc3)n2)n1` [Example 135, 6-{5-[6-(cyclopropylmethoxy)pyridin-3-yl]-1,2,4-oxadiazol-3-yl}-2-N-(3-fluorophenyl)-2-N-methyl-1,3,5-triazine-2,4-diamine] is 44 nM; for `COCCN(c1ccccc1)c1nc(N)nc(-c2noc(-c3ccc(OCC(F)(F)F)nc3)n2)n1` [Example 156, 2-N-(2-Methoxyethyl)-2-N-phenyl-6-{5-[6-(2,2,2-trifluoroethoxy)pyridin-3-yl]-1,2,4-oxadiazol-3-yl}-1,3,5-triazine-2,4-diamine] it is 65 nM; for `CN(c1ccccc1)c1nc(N)nc(-c2noc(N3CCC(COCC(F)(F)F)CC3)n2)n1` [Example 167, 2-N-Methyl-2-N-phenyl-6-(5-{4-[(2,2,2-trifluoroethoxy)methyl]piperidin-1-yl}-1,2,4-oxadiazol-3-yl)-1,3,5-triazine-2,4-diamine] it is 235 nM.

The next experiment deals with T1, Nav 1.7. In words: Whole-cell voltage clamp electrophysiology, automated patch clamp (marker c in Table of Examples). The experiment is classed as cell-based. Conditions: marker c: Automated patch clamp data; read-out: Nav 1.7 activity. A digest of the protocol:
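A voltage protocol weighted toward inactivated-state block was used to test compounds on stably expressing cells, with pulses from −65 mV holding to −10 mV test and −100 mV. Currents came from whole-cell automated patch-clamp recordings, either IonWorks Quattro or other automated instruments, usually in perforated-patch mode.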
`Nc1nc(-c2noc(-c3ccco3)n2)nc(N(CC(F)(F)F)c2ccccc2)n1` [Example 68, 6-(5-Furan-2-yl-[1,2,4]oxadiazol-3-yl)-N-phenyl-N-(2,2,2-trifluoro-ethyl)-[1,3,5]triazine-2,4-diamine]: the IC50 turned out to be 225 nM.
On to `COc1ccccc1-c1nc(-c2nc(N)nc(N(C)c3cccc(Cl)c3)n2)no1` [Example 100, N-(3-Chloro-phenyl)-6-[5-(2-methoxy-phenyl)-[1,2,4]oxadiazol-3-yl]-N-methyl-[1,3,5]triazine-2,4-diamine], for which the IC50 worked out at 118 nM.
On to `COc1ccc(-c2nc(-c3nc(N)nc(N(C)c4ccccc4)n3)no2)nc1` [Example 118, 6-[5-(5-Methoxy-pyridin-2-yl)-[1,2,4]oxadiazol-3-yl]-N-methyl-N-phenyl-[1,3,5]triazine-2,4-diamine], for which the IC50 came to 294 nM.
Same read-out and setting: the figure for `COc1cccnc1-c1nc(-c2nc(N)nc(N(C)c3ccccc3)n2)no1` [Example 132, 6-[5-(3-Methoxy-2-pyridyl)-[1,2,4]oxadiazol-3-yl]-N-methyl-N-phenyl-[1,3,5]triazine-2,4-diamine] is 397 nM.

For another experiment, the target named is T2, Nav1.5 (Homo sapiens, UniProt Q14524).
T2 construct: expressed in transfected cells
T2 sequence (Q14524 whole entry): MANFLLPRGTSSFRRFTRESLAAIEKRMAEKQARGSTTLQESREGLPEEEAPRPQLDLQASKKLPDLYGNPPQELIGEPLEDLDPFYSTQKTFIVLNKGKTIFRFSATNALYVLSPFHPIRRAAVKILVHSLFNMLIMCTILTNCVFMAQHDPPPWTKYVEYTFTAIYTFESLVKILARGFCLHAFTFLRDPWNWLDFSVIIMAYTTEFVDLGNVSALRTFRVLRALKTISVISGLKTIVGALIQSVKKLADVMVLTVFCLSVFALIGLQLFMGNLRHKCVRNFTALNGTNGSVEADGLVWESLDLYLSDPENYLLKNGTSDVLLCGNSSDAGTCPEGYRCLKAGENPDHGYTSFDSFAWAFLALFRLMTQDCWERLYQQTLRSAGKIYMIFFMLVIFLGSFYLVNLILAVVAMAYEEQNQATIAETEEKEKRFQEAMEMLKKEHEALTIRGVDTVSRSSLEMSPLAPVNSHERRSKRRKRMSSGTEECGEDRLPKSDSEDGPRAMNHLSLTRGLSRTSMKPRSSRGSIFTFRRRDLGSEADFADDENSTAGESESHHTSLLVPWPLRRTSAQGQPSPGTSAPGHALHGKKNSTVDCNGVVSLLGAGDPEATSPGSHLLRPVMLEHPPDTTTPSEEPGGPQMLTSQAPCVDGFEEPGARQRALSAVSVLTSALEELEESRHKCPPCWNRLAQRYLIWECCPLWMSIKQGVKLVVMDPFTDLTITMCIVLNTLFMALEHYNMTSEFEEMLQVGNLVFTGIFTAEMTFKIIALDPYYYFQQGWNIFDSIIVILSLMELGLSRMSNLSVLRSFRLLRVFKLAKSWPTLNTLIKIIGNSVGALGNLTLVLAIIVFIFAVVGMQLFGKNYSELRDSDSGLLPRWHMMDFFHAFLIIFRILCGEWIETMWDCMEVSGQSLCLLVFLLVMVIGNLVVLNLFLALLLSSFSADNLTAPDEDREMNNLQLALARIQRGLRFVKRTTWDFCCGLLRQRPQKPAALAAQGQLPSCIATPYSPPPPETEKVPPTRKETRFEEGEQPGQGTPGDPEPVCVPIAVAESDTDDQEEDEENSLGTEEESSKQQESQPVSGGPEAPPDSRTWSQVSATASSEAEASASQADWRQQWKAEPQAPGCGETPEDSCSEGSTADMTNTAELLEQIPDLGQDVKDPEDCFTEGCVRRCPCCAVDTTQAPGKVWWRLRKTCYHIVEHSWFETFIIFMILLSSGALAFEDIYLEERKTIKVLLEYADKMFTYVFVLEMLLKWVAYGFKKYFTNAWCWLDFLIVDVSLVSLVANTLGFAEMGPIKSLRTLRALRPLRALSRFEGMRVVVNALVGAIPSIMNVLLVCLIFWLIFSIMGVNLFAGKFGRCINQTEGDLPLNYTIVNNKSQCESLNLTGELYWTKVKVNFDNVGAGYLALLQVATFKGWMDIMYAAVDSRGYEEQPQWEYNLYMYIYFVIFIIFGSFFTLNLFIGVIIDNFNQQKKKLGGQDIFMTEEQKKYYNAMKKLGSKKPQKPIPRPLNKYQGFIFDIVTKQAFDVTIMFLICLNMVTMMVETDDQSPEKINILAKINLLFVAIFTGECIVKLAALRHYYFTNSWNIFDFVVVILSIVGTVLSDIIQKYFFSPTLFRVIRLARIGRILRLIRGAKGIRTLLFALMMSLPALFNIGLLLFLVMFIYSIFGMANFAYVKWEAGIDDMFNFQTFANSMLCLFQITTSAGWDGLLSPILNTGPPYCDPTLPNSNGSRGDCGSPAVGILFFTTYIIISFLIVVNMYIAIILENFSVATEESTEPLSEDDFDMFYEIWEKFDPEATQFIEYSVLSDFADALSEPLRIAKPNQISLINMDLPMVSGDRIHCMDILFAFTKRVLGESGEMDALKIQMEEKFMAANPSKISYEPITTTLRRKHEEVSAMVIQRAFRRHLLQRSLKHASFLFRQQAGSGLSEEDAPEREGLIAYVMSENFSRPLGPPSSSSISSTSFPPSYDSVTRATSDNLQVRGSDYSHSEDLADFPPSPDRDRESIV
In words: Inhibition of Nav1.5 as measured using manual patch clamp. In kind it is cell-based.
Conditions: not given
Description: as §1, §2, §3, §4
Inhibition of Nav1.5 by Compounds of formula (I) as measured using manual patch clamp
Take `CN(c1ccccc1)c1nc(N)nc(-c2noc(-c3ccco3)n2)n1` [Example 1, 6-(5-Furan-2-yl-[1,2,4]oxadiazol-3-yl)-N-methyl-N-phenyl-[1,3,5]triazine-2,4-diamine]: the IC50 was found to be 2430 nM.
For `Nc1nc(-c2noc(-c3ccco3)n2)nc(N(CC(F)(F)F)c2ccccc2)n1` [Example 68, 6-(5-Furan-2-yl-[1,2,4]oxadiazol-3-yl)-N-phenyl-N-(2,2,2-trifluoro-ethyl)-[1,3,5]triazine-2,4-diamine], the IC50 is above 10000 nM.
Still for that read-out and setting: in the case of `COc1ccccc1-c1nc(-c2nc(N)nc(N(C)c3cccc(Cl)c3)n2)no1` [Example 100, N-(3-Chloro-phenyl)-6-[5-(2-methoxy-phenyl)-[1,2,4]oxadiazol-3-yl]-N-methyl-[1,3,5]triazine-2,4-diamine] it was 126 nM; in that of `COc1ccc(-c2nc(-c3nc(N)nc(N(C)c4ccccc4)n3)no2)nc1` [Example 118, 6-[5-(5-Methoxy-pyridin-2-yl)-[1,2,4]oxadiazol-3-yl]-N-methyl-N-phenyl-[1,3,5]triazine-2,4-diamine], 3340 nM.
Still for that read-out and setting: in the case of `COc1cccnc1-c1nc(-c2nc(N)nc(N(C)c3ccccc3)n2)no1` [Example 132, 6-[5-(3-Methoxy-2-pyridyl)-[1,2,4]oxadiazol-3-yl]-N-methyl-N-phenyl-[1,3,5]triazine-2,4-diamine] it was 2600 nM.
